Test results reported in US20110237528A1, “COMPOSITIONS AND METHODS COMPRISING IMIDAZOLE AND TRIAZOLE DERIVATIVES” (INSTITUTE FOR ONEWORLD HEALTH, priority 2008, published 2011).

biological target: T1, CFTR in the CHO-CFTR cell line (Homo sapiens, UniProt P13569); assay: CHO-CFTR assay (FLIPR assay, same conditions as T84 assay); format: cell-based; settings: average of at least 2 runs unless marked n = 1
T1 construct: expressed in transfected cells; host or cells: CHO (CHO-CFTR cell line)
T1 sequence (P13569 whole entry): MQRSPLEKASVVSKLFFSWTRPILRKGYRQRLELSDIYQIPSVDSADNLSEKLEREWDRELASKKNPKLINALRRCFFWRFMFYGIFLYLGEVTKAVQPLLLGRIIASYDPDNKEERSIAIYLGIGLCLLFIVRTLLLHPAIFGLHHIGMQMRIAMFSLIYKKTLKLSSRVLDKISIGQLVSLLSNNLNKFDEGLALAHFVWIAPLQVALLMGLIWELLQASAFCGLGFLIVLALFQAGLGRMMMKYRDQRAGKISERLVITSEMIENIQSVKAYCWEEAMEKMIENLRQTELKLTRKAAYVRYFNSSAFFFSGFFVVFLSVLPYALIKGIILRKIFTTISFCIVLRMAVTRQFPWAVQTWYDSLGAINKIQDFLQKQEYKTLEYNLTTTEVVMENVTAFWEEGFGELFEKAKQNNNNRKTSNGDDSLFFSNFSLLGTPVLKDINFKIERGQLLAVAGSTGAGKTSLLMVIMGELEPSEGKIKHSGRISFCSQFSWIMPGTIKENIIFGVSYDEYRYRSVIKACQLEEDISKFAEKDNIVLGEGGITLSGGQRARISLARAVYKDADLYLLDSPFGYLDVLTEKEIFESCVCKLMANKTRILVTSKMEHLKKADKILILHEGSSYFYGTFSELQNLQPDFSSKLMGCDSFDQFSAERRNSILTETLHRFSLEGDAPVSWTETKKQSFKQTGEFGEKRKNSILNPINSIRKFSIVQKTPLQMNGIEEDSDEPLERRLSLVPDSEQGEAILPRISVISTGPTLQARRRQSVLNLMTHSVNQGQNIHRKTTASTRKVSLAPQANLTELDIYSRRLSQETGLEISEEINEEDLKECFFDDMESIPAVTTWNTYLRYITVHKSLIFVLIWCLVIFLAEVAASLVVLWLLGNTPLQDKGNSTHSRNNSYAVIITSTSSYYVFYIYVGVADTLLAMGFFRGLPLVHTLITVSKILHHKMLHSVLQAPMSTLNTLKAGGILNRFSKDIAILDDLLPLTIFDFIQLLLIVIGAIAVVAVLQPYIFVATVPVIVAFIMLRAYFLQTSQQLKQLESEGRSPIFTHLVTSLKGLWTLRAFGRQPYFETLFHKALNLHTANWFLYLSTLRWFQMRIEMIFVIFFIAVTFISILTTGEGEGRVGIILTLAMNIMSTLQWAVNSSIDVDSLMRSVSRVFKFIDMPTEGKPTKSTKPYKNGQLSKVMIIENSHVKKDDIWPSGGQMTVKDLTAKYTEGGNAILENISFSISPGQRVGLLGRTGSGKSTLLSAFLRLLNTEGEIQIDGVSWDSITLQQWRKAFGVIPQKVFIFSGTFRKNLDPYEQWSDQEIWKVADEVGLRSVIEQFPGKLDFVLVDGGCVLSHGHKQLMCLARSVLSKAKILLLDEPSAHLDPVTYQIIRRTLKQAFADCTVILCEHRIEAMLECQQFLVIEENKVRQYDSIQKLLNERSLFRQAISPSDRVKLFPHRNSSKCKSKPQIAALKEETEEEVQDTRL

IC50, ≥ 50 µM:
Cc1noc(C)c1CCNC(=O)c1ncn(-c2cc(Cl)c(O)c(Cl)c2)n1 [Compound 74, 1-(3,5-dichloro-4-hydroxyphenyl)-N-(2-(3,5-dimethylisoxazol-4-yl)ethyl)-1H-1,2,4-triazole-3-carboxamide]
CC(C)(C)CCN(Cc1cccc(OC(F)(F)F)c1)C(=O)c1ncn(-c2cc(Cl)c(O)c(Cl)c2)n1 [Compound 77, 1-(3,5-dichloro-4-hydroxyphenyl)-N-(3,3-dimethylbutyl)-N-(3-(trifluoromethoxy)benzyl)-1H-1,2,4-triazole-3-carboxamide]
CC(C)(C)CCN(Cc1cccc(C(F)(F)F)c1)C(=O)c1ncn(-c2cc(Cl)c(O)c(Cl)c2)n1 [Compound 79, 1-(3,5-dichloro-4-hydroxyphenyl)-N-(3,3-dimethylbutyl)-N-(3-(trifluoromethyl)benzyl)-1H-1,2,4-triazole-3-carboxamide]
O=C(c1ncn(-c2cc(Cl)c(O)c(Cl)c2)n1)N(Cc1ccccc1)Cc1cccc(OC(F)(F)F)c1 [Compound 84, N-benzyl-1-(3,5-dichloro-4-hydroxyphenyl)-N-(3-(trifluoromethoxy)benzyl)-1H-1,2,4-triazole-3-carboxamide]
O=C(c1ncn(-c2cc(Cl)c(O)c(Cl)c2)n1)N(Cc1ccccc1)Cc1cccc(C(F)(F)F)c1 [Compound 85, N-benzyl-1-(3,5-dichloro-4-hydroxyphenyl)-N-(3-(trifluoromethyl)benzyl)-1H-1,2,4-triazole-3-carboxamide]
C=CCN(Cc1ccc(C(C)C)cc1)C(=O)c1ncn(-c2cc(Cl)c(O)c(Cl)c2)n1 [Compound 101, N-allyl-1-(3,5-dichloro-4-hydroxyphenyl)-N-(4-isopropylbenzyl)-1H-1,2,4-triazole-3-carboxamide]
COCCOCCOCCOCCN(Cc1ccc(Cl)c(Cl)c1)C(=O)c1ncn(-c2cc(Cl)c(O)c(Cl)c2)n1 [Compound 111, 1-(3,5-dichloro-4-hydroxyphenyl)-N-(3,4-dichlorobenzyl)-N-(2,5,8,11-tetraoxatridecan-13-yl)-1H-1,2,4-triazole-3-carboxamide]
COCCOCCOCCN(Cc1cccc(OC(F)(F)F)c1)C(=O)c1ncn(-c2cc(Cl)c(O)c(Cl)c2)n1 [Compound 113, 1-(3,5-dichloro-4-hydroxyphenyl)-N-(2-(2-(2-methoxyethoxy)ethoxy)ethyl)-N-(3-(trifluoromethoxy)benzyl)-1H-1,2,4-triazole-3-carboxamide]
COCCOCCOCCOCCN(Cc1cccc(OC(F)(F)F)c1)C(=O)c1ncn(-c2cc(Cl)c(O)c(Cl)c2)n1 [Compound 115, 1-(3,5-dichloro-4-hydroxyphenyl)-N-(2,5,8,11-tetraoxatridecan-13-yl)-N-(3-(trifluoromethoxy)benzyl)-1H-1,2,4-triazole-3-carboxamide]
CC(C)(C)c1ccc(CN(CCOCCOCCOCCOCCOCCOCc2ccccc2)C(=O)c2ncn(-c3cc(Cl)c(O)c(Cl)c3)n2)cc1 [Compound 116, N-(4-tert-butylbenzyl)-1-(3,5-dichloro-4-hydroxyphenyl)-N-(1-phenyl-2,5,8,11,14,17-hexaoxanonadecan-19-yl)-1H-1,2,4-triazole-3-carboxamide]
COCCOCCOCCOCCOCCOCCOCCOCCN(Cc1ccc(C(C)(C)C)cc1)C(=O)c1ncn(-c2cc(Cl)c(O)c(Cl)c2)n1 [Compound 117, N-(4-tert-butylbenzyl)-1-(3,5-dichloro-4-hydroxyphenyl)-N-(2,5,8,11,14,17,20,23-octaoxapentacosan-25-yl)-1H-1,2,4-triazole-3-carboxamide]
COCCOCCOCCOCCOCCN(Cc1ccc(C(C)(C)C)cc1)C(=O)c1ncn(-c2cc(Cl)c(O)c(Cl)c2)n1 [Compound 118, N-(4-tert-butylbenzyl)-1-(3,5-dichloro-4-hydroxyphenyl)-N-(2,5,8,11,14-pentaoxahexadecan-16-yl)-1H-1,2,4-triazole-3-carboxamide]
